Paper PMC7696167 (Pharmaceutics, 2020)

How the values were obtained:
[1] = Population pharmacokinetic model of oral roscovitine and metabolite M3, first dose, ROSCO-CF trial
[2] = tested on: CYP3A4; design: method as in PMID 18048486; conditions: cited from earlier work
[3] = tested on: CYP2B6; design: method as in PMID 18048486; conditions: cited from earlier work
[4] = tested on: P-glycoprotein 1 (P-gp, MDR1 or ABCB1) efflux pump; design: method as in PMID 20699410; conditions: cited from earlier work
[5] = population estimate, adult CF patients, oral
[6] = population estimate, covariate effect

Row | SMILES | ke: elimination rate of the metabolite ([1]; population estimate) | substrate for CYP3A4 [2] | substrate for CYP2B6 [3] | substrate for P-glycoprotein 1 efflux pump [4] | rate of absorption in patients treated with PPIs ([1]; oral roscovitine, adult CF patients) | CV1: coefficient of variation of first inverse Gaussian absorption function ([1]; population estimate) | CV2: coefficient of variation of second inverse Gaussian absorption function ([1]; population estimate) | k12: distribution rate to the peripheral compartment ([1]; population estimate) | k21: distribution rate from the peripheral compartment ([1]; population estimate) | kmet: systemic conversion rate of roscovitine in its carboxylate metabolite M3 ([1]; population estimate) | T1max: time at which the first inverse Gaussian absorption function reaches its maximum [1, 5] | dT2max (T2max = T1max + dT2max), inverse Gaussian absorption parameter [1, 5] | π1: weight associated with the first input fraction [1, 5] | D50: oral dose of roscovitine for which Fdose is 50% ([1]; population estimate, adult CF patients, oral 200-800 mg) | β (PPI = 1) on T1max: coefficient for modification of T1max in patients taking PPI [1, 6] | β height (cm) on V: coefficient for the effect of height on V/F [1, 6] | V/F: apparent volume of the central compartment after oral administration ([1]; population estimate, single parameter common to roscovitine and M3, reference height 170 cm)
1 | CC[C@@H](Nc1nc(NCc2ccccc2)c2ncn(C(C)C)c2n1)C(=O)O [M3] | 2.58 h⁻¹ |  |  |  |  |  |  |  |  |  |  |  |  |  |  |  | 
2 | CC[C@H](CO)Nc1nc(NCc2ccccc2)c2ncn(C(C)C)c2n1 [roscovitine, (R)-roscovitine] |  | substrate | substrate | substrate | slower rate of absorption | 0.542 | 0.354 | 1.82 h⁻¹ | 0.768 h⁻¹ | 2.07 h⁻¹ | 0.676 h | 1.04 h | 0.285 | 1190 µmol | 0.680 | 6.47 | 62.2 L
